{"source": "patent US5374713A", "about": "“Peptide inhibitors of phospholipase A2 purified from inflammatory sites” (Teijin Limited, priority 1990, dated 1994)", "key": {"[1]": {"biological_target": "T1, phospholipase A2 from human inflammatory sites (the joint fluid from patients with rheumatoid arthritis) (Homo sapiens, UniProt P14555)", "T1 construct": "from human inflammatory sites (the joint fluid from patients with rheumatoid arthritis); from tissue; host or cells: joint fluid from patients with rheumatoid arthritis", "T1 sequence (P14555 21-144)": "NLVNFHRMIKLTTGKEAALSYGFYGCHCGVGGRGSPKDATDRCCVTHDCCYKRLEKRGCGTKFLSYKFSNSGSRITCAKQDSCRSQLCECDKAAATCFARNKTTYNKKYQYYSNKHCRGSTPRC", "assay": "Determination of inhibitory activity against phospholipase A2 (human inflammatory sites)", "type": "biochemical", "conditions": "phosphatidylethanolamine substrate, pH 9.0, 37° C., 10 minutes", "procedure": "(§1) The activity-measuring system was prepared by adding distilled water to 100 mM Tris-HCl (ph 9.0), 4 mM calcium chloride, 0.1 mM phosphatidylethanolamine (2,000 dpm/nmol), and 10 μl sample to adjust the total volume to 240 μl, and finally 10 μl of 0.1 ng/μ1 phospholipase A2 was added. The phospholipases A2 used were from human inflammatory sites (the joint fluid from patients with rheumatoid arthritis) (Hara et al., J. Biochem., 104, 326-328, 1988), rat inflammatory sites (Chang et al., J. Biochem., 102, 147-154, 1987), and porcine pancreas (Boehringer Manheim Co.). Phosphatidylethanolamine was purified from Escherichia coli cultured in a medium to which acetic acid was added.\n(§2) The reactions were conducted at 37° C. with stirring for 10 minutes. The termination of the reaction and the extraction of fatty acids generated were carried out by the Dole's method (Dole et al., J. Biol. Chem., 235, 2595-2599, 1960) and the extracted fatty acid was determined with a scintillation counter.\n(§3) The lyophilyzed sample obtained in Example 1 was dissolved again in 50% acetone-0.1% trifluoroacetic acid to adjust the concentration to 10 mg/ml. The solution was further diluted stepwise with the same buffer and the inhibitory activity of phospholipase A2 from inflammatory sites was determined at individual concentrations."}, "[2]": {"biological_target": "T2, phospholipase A2 from rat inflammatory sites (Rattus norvegicus, UniProt P14423)", "T2 construct": "rat inflammatory sites (Chang et al., J. Biochem., 102, 147-154, 1987); from tissue", "T2 sequence (P14423 22-146)": "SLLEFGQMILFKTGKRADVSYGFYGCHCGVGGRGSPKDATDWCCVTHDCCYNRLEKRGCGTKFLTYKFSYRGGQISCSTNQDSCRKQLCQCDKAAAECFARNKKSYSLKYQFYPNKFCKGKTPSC", "assay": "Determination of inhibitory activity against phospholipase A2 (rat inflammatory sites)", "type": "biochemical", "conditions": "phosphatidylethanolamine substrate, pH 9.0, 37° C., 10 minutes", "procedure": "as §1, §2, §3"}}, "note": "Ends that are not written are not given here.", "data": [{"sequence": "QKDAPDHQELNLDVSLQLPSR", "values": [{"measurement": "IC50", "setting": "[1]", "result": "~500", "unit": "nM"}, {"measurement": "IC50", "setting": "[2]", "result": "~500", "unit": "nM"}]}]}
